Like-named read-outs stand apart in the source and are kept apart here.
Assays:
[1] = in vitro; details: human
Protocol: Thus, we used the methylthiazolyl tetrazolium (MTT) method [30] to perform a neurocyte (SH-SY5Y) toxicity test in vitro.
The SH-SY5Y cell line was seeded on 96-well plates at a density of 10^4 cells/well. […] Subsequently, 10 μL of 5 mg/mL MTT solution was added to each well and further incubated for 4 h at 37 °C. The solution was carefully removed, and each well was treated with DMSO (200 μL for each well). The optical density of the wells was then read on the microplate reader at 570 nm. All the tested compounds were performed in triplicate.

[2] = molecular target: Aβ (1–42) (Homo sapiens, UniProt P05067); test: Inhibition of self-mediated Aβ (1–42) aggregation (thioflavin T fluorescence assay); details: for inhibition at 20 µM: read-out: Aβ (1–42) aggregation inhibition rate
Protocol: A thioflavin T based fluorometric assay was performed to investigate the self-mediated Aβ (1–42) aggregation [33]. Aβ (1–42) peptide (Sigma-Aldrich) was dissolved in phosphate buffer (0.01 M, pH 7.40) to obtain a 20 μM solution. Compounds were firstly dissolved in DMSO to obtain a 10 mM solution. Inhibitors and the final concentration of Aβ (1–42) were 20 μM. After incubated in 37 °C for 48 h, thioflavin-T (5 μM in 50 mM glycine-NaOH buffer, pH 8.00) was added. […] Each inhibitor was run in triplicate. The fluorescence intensities were recorded, and the percent inhibition on aggregation was calculated by the following expression: (1 − IFi/IFc) × 100% in which IFi and IFc were the fluorescence intensities obtained for absorbance in the presence and absence of inhibitors, respectively, after subtracting the fluorescence of respective blanks.

[3] = molecular target: T1, BuChE (Equus caballus, UniProt P81908); test: biochemical; details: BuChE from equine serum; means ± SEM of three experiments; read-out: BuChE Inhibition, (IC50)
T1 construct: purchased Aladdin B128570-2KU; host or cells: equine serum
Protocol: (§1) Acetylcholinesterase (AChE, E.C. 3.1.1.7, obtained from electric eel) was purchased from Sigma-Aldrich (St. Louis, MO, USA, product code: C3389-2KU). Butyrylcholinesterase (BuChE, E.C. 3.1.1.8, obtained from equine serum) was purchased from Aladdin (Shanghai, China, product code: B128570-2KU). […] The compounds were dissolved in a minimum volume of DMSO (1%) and then diluted in 0.1 M KH2PO4/K2HPO4 buffer (pH 8.0) to provide a final concentration range.
(§2) Enzyme solutions were prepared to give 2.0 units/ mL in 2 mL aliquots. The assay medium contained phosphate buffer, pH 8.0 (1 mL), 50 μL of 0.01 M DTNB, 10 μL of enzyme, and 50 μL of 0.01 M substrate (ATC). The substrate was added to the assay medium containing enzyme, buffer, and DTNB with inhibitor after 15 min of incubation time. […] In vitro BuChE assay used the similar method described above [31]. Each concentration was assayed in triplicate.

[4] = molecular target: T2, AChE (Electrophorus electricus, UniProt O42275); test: Kinetic characterization of AChE inhibition (Lineweaver-Burk plot); format: biochemical; details: Lineweaver–Burk plots
T2 construct: purchased Sigma-Aldrich C3389-2KU
Protocol: Three different concentrations (2, 4 and 8 nM) of substrate were mixed in the 1 mL 0.1 M KH2PO4/K2HPO4 buffer (pH 8.0), containing 10 μL AChE, 50 μL of DTNB, and 50 μL substrate. […] A parallel control with no inhibitor in the mixture, allowed adjusting activities to be measured at various times.

[5] = molecular target: T2, AChE; test: biochemical; details: for IC50: AChE from electric eel, means ± SEM of three experiments, read-out: AchE Inhibition, (IC50); for Selective Index: Selectivity Index = IC50 (BuChE)/IC50 (AChE)
Protocol: as §1, §2

[6] = tested on: PC12 cells; test: Protective effect against H2O2-induced cell death in PC12 neurons (MTT); format: cell-based
Protocol: The neuroprotective activity of compound 4f against oxidative stress-induced cell death in PC12 cells was evaluated. Compound 4f was evaluated at concentrations of 1, 2.5 and 5 µM, and quercetin was used as the reference compound. […] […].
PC12 cells were cultured in DMEM media with 10% fetal calf serum (FCS, Hyclone) containing 100 units/mL penicillin and […] streptomycin under 5% CO2 at 37 °C. To produce oxidative stress, H2O2 was freshly prepared from a 30% stock solution prior to each experiment. PC12 cells were plated in cell culture plates at a density of 10^5 cells per well. In our study, 0.2 mM H2O2 were treated with PC12 cells for 24 h in the injury module, while the compound group cells were pretreated with different concentrations (1, 2.5 and 5 μM) of the compound 4f for 2 h. The control group cells were treated with the same medium without H2O2 or compound 4f. The cell viability of PC12 cells was evaluated using MTT assay. After, PC12 cells were cultured with 5 mg/mL MTT and incubated for 4 h at 37 °C. Then the cells were lysed in dimethyl sulfoxide DMSO ([…]). The absorbance was detected at 570 nm by a microplate reader (Bio-Tek). PC12 cells were cultured without 4f or H2O2 as control group and the results were expressed by percentage of control.

[7] = Oxygen radical absorbance capacity-fluorescein (ORAC-FL) assay; details: Trolox equivalents, Trolox = 1
Protocol: Vitamin E analogue Trolox was used as the standard, and the results were expressed as Trolox equivalents.
The anti-oxidation activity was tested by using the oxygen radical absorbance capacity-fluorescein (ORAC-FL) assay [25, 32]. All the ORAC-assays measure antioxidant scavenging activity against peroxyl radical induced by 2,2′-azobis (2-amidinopropane) dihydrochloride (AAPH) at 37 °C.
The reaction was conducted with 75 mM phosphate buffer (pH 7.4) and the final reaction mixture was 200 μL. Fluorescein (120 μL, 300 nM final concentration) and antioxidant (20 μL) were placed in the wells of a black 96-well plate, and the mixture was incubated for 15 min at 37 °C. Then AAPH solution (60 μL, 12 mM final concentration) was added rapidly. […] 6-hydroxy-2,5,7,8-tetramethylchroman-2-carboxylic acid (Trolox) was used as a standard (1–5 μM, final concentration). A blank (FL + AAPH) using phosphate buffer instead of antioxidant and Trolox calibration were carried out in each assay. The samples were measured at different concentrations (1–5 μM), and at least three independent assays were performed for each sample. Fluorescence measurements were normalized based on the curve of the blank (without antioxidant). Antioxidant curves (fluorescence versus time) were normalized to the curve of the blank in the same assay, and then the area under the fluorescence decay curve (AUC) was calculated. The net AUC of a sample was obtained by subtracting the AUC from the blank. ORAC-FL values were expressed as Trolox equivalents by using the standard curve calculated for each sample, where the ORAC-FL value of Trolox was taken as one, indicating the antioxidant potency of the test compounds.

T2 sequence (O42275 24-633): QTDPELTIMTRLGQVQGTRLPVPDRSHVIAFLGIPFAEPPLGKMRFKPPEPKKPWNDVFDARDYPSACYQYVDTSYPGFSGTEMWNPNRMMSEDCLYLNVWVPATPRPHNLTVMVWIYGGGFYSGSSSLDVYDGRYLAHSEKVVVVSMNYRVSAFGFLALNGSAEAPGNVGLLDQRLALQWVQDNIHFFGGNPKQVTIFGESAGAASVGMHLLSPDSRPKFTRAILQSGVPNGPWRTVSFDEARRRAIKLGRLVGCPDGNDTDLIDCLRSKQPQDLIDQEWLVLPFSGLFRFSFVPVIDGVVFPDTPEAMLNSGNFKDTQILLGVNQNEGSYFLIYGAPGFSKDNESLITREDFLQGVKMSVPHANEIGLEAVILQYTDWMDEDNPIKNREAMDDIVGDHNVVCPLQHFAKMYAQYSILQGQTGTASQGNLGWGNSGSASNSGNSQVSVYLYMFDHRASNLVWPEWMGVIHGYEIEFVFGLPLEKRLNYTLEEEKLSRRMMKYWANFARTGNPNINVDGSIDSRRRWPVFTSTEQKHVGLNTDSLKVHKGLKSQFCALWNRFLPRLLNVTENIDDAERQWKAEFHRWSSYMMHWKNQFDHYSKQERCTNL
T1 sequence (P81908 whole entry): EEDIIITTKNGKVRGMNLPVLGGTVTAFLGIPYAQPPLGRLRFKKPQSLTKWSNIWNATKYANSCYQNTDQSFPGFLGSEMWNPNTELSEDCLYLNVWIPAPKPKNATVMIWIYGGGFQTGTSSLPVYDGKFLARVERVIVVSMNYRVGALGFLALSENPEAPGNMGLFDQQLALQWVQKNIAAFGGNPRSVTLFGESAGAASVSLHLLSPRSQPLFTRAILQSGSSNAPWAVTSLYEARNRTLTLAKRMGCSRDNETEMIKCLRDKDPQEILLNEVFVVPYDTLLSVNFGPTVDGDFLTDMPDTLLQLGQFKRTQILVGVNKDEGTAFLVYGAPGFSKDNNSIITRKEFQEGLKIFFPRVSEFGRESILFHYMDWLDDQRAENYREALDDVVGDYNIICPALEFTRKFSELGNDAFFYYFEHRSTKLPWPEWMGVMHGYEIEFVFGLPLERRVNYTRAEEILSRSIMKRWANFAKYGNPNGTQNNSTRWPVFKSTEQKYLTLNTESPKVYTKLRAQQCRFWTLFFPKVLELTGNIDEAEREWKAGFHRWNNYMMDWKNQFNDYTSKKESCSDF
Aβ (1–42), sequence (P05067 672-713): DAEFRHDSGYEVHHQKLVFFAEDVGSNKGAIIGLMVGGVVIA

Structure (SMILES)	viability at 48 h, 1 µM [1]	viability at 48 h, 10 µM [1]	viability at 48 h, 50 µM [1]	viability at 48 h, 100 µM [1]	IC50 [2]	inhibition at 20 µM [2]	IC50 [3]	inhibition type against AChE [4]	Ki ([4]; superscript b not defined, read-out: Ki b)	Ki ([4]; superscript c not defined, read-out: Ki c)	Ki ([4]; superscript d not defined, read-out: Ki d)	IC50 [5]	Selective Index [5]	protective capability compared with quercetin ([6]; 5 µM, H2O2 200 µM)	cytotoxicity toward the PC12 cells ([6]; 1, 2.5 and 5 µM)	protection of PC12 neurons against H2O2-induced cell death ([6]; pretreatment at 1, 2.5 and 5 µM, H2O2 200 µM, p-value < 0.01)	ORAC [7]
COc1ccc([C@@H]2CC(=O)c3c(O)cc(OCC(=O)NCc4ccc(C(F)(F)F)cc4)cc3O2)cc1O [Compound 4f, 2-[5-Hydroxy-2-(3-hydroxy-4-methoxyphenyl)-4-oxochroman-7-yloxy]-N-(4-trifluoro-methylbenzyl)acetamide]	100 ± 4.76%	95.8 ± 7.31%	83.3 ± 5.44%	62.3 ± 5.78%	8470 ± 440 nM	76.3%	2860 ± 45 nM	mixed-type inhibition	4.67 nM	4.27 nM	3.28 nM	9.37 ± 0.87 nM	305	slightly better protective capability than quercetin	no cytotoxicity	significantly protected the neurons against cell death	
COc1ccc(C2CC(=O)c3c(O)cc(OCC(=O)NCc4ccco4)cc3O2)cc1O (stereo not shown) [Compound 4t, N-Furan-2-ylmethyl-2-[5-hydroxy-2-(3-hydroxy-4-methoxyphenyl)-4-oxochroman-7-yloxy]acetamide]	99.9 ± 4.52%	97.5 ± 3.65%	81.8 ± 4.06%	61.2 ± 5.12%		70.8%	2350 ± 104 nM					30.6 ± 4.5 nM	77				2.6 μM of Trolox equivalent/μMof tested compound
COc1ccc(C2CC(=O)c3c(O)cc(OCC(=O)NCc4ccncc4)cc3O2)cc1O (stereo not shown) [Compound 4s, 2-[5-Hydroxy-2-(3-hydroxy-4-methoxyphenyl)-4-oxochroman-7-yloxy]-N-pyridin-4-ylmethylacetamide]	101 ± 6.17%	97.5 ± 5.36%	78.7 ± 3.46%	59.6 ± 3.61%		72%	1850 ± 55 nM					27.3 ± 0.99 nM	68				2.4 μM of Trolox equivalent/μMof tested compound
